Reference: patent US20240307415A1, “STEROID COMPOUND, AND PHARMACEUTICAL COMPOSITION THEREOF AND USE THEREOF” (JIANGSU SIMCERE PHARMACEUTICAL CO., LTD., priority 2021, published 2024)

How the values were obtained:
[1] = Metabolic stability in mouse liver microsomes; assay type: in vitro ADME; conditions: CD-1, mouse, pH 7.4, 1 μM compound, 0.5 mg/mL microsome, NADPH 1 mM, 37° C., read-out: Mouse liver microsome stability t1/2
From the text: • 1. Human liver microsome (Corning 452117), beagle dog liver microsome (XENOTECH D1000), SD rat liver microsome (XENOTECH R1000), and CD-1 mouse liver microsome (XENOTECH M1000) • 2. Na2HPO4 (Tianjin Guangfu Fine Chemical Research Institute 20180130) • 3. KH2PO4 (Tianjin Guangfu Fine Chemical Research Institute 20180920) • 4. MgCl2 (Tianjin Guangfu Fine Chemical Research Institute 20191216) • 5. NADPH (Solarbio 1216C022) • 6. Positive control compound verapamil (Sigma MKBV4993V) • 7. AB Sciex API4000 liquid chromatography-mass spectrometry system
• 1. Preparation of 100 mM phosphate-buffered saline (PBS): 7.098 g Na2HPO4 was weighed. 500 mL pure water was added. The mixture was dissolved by sonication to give solution A. 3.400 g KH2PO4 was weighed. 250 mL pure water was added. […]
All data were calculated by Microsoft Excel software. The peak area was detected through an extracted ion chromatogram. The in vitro half-life (t1/2) of the compound was determined by linear fitting of the natural logarithm of compound elimination percentage over time.
In vitro half-life (t1/2) was calculated by the slope k: […]
The in vitro intrinsic clearance (in μL/min/mg protein) was calculated using the following formula: […]

CYP2C9 = CYP2C9 (Homo sapiens (Human), UniProt P11712); experiment: Inhibition of CYP2C9 enzymatic activity in human liver microsomes; assay type: in vitro ADME; conditions: human liver microsome, substrate diclofenac, 5 min
Sequence of CYP2C9 (P11712 whole entry): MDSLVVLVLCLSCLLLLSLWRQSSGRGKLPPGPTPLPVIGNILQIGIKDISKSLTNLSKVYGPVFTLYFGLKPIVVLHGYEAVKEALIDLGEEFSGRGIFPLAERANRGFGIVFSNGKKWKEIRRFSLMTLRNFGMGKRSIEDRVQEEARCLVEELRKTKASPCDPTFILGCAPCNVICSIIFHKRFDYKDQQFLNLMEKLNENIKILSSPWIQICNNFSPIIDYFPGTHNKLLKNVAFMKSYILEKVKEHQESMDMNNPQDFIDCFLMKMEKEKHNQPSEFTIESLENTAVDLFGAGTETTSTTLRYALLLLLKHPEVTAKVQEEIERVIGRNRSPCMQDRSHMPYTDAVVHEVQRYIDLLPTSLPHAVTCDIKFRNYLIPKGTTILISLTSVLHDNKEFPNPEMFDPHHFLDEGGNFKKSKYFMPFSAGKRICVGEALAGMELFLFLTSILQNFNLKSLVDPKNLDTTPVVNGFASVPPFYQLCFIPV
Procedure: The inhibition of CYP2C9 and CYP2D6 activity by the compound of the present invention was determined using the following method.
• 1. Human liver microsome (Corning 452117) • 2. NADPH (Solarbio 705Y021) • 3. Positive substrates diclofenac (Sigma SLBV3438) and dextromethorphan (TRC 3-EDO-175-1) • 4. Positive inhibitors sulfaphenazole (D. Ehrenstorfer GmbH 109012) and quinidine (TCI WEODL-RE) • 5. AB Sciex Triple Quad 5500 liquid chromatography-mass spectrometry system
• 1. Preparation of 100 mM phosphate-buffered saline (PBS): 7.098 g Na2HPO4 was weighed. 500 mL pure water was added. The mixture was dissolved by sonication to give solution A. 3.400 g KH2PO4 was weighed. 250 mL pure water was added. The mixture was dissolved by sonication to give solution B. The solution A was placed in a stirrer, and the solution B was slowly added until the pH reached 7.4, so that the 100 mM PBS buffer was prepared. • 2. A 10 mM NADPH solution was prepared with a 100 mM PBS buffer. A 10 mM stock solution of the compound of the present invention was diluted with DMSO to give a compound working solution at a concentration of 200×(6000, 2000, 600, 200, 60, 20, and 0 μM). […]
The reduction of metabolite production in the treatment groups versus the control group was compared by the peak area ratios of the sample to the internal standard, and the IC50 value was calculated using Excel XLfit 5.3.1.3.

In the case of `C[C@]12C=CC(=O)C=C1CC[C@@H]1[C@@H]2[C@@H](O)C[C@@]2(C)[C@H]1C[C@H]1O[C@@H](c3ccc(Cc4cc(N)c5c(c4)CCO5)cc3)O[C@]12C(=O)CO` [Compound 009, (6aR,6bS,7S,8aS,8bS,10R,11aR,12aS,12bS)-10-(4-((7-amino-2,3-dihydrobenzofuran-5-yl)methyl)phenyl)-7-hydroxy-8b-(2-hydroxyacetyl)-6a,8a-dimethyl-6a,6b,7,8,8a,8b,11a,12,12a,12b-decahydro-1H-naphtho[2′,1′:4,5]indeno[1,2-d][1,3]dioxolan-4(2H)-one], the half-life at 1 μM [1] is reported as 17.3 min and the IC50 (CYP2C9) is reported as 7.2 µM.
